Laboratory results published in patent US4778802A, “Heterocyclic compounds” (John Wyeth & Brother, Ltd., priority 1985, dated 1988).
Where two headings read alike, the source gives them in different places.

What was measured:
[1] = system: pCA-induced 5-HT syndrome; experiment: Inhibition of p-chloroamphetamine (pCA)-induced stereotypy in rats, p.o.; format: in vivo, male Sprague-Dawley rats; settings: for inhibition of syndrome at 50 mg/kg: 50 mg/kg p.o.; for ED50: Rattus norvegicus, po; for antagonism of pCA-induced stereotypy (in words): 5 dose levels
Experimental: Representative compounds of this invention were tested for their ability to inhibit pCA induced syndrome in rats by the standard procedure described below:
(§1) Inhibition of p-chloroamphetamine (pCA)-induced stereotypy
Vehicle or drug (5 dose levels) were administered p.o. to six groups of 6-8 male Sprague-Dawley rats (300-400 g) followed, 90 minutes later, by pCA (10 mg/kg i.p.). The animals were then placed in individual observation chambers and, 30 minutes after pCA administration, the intensity of the pCA-induced 5-HT syndrome was assessed according to the following scoring system:
head-weaving 0, 1, 2 or 3 according to
fore-paw treading severity
(§2) tremor 0 (absent) or 1 (present)
Therefore, the maximum score for each animal was 10.
(§3) The inhibition of pCA induced stereotypy is calculated for each dose level as follows: [formula] where
C=control group total score at 30 minutes post pCA.
T=group total score of treated group at 30 minutes post pCA.
For each dose a % effect is calculated.
The results obtained from the tests using 5 different dose levels of the drug allow the ED50 value (i.e. the dose required to produce 50% inhibition of pCA induced stereotypy) to be calculated.
The test was carried out using the free bases except for compound C which was tested in the form if its maleate salt and the result corrected for amount of active material.

[2] = system: pCA-induced stereotypy; experiment: Duration of action: inhibition of pCA-induced stereotypy at various times after dosing; format: in vivo, male Sprague-Dawley rats; settings: 6 mg/kg p.o.
Experimental: as §1
The animals were then placed in individual observation chambers and, 30 minutes after pCA administration, the intensity of the pCA-induced 5-HT syndrome was assessed according to the following scoring system:
as §3

[3] = system: 3H noradrenaline (NA) uptake into rat brain synaptosomes; experiment: Inhibition of 3H noradrenaline (NA) uptake into rat brain synaptosomes; format: biochemical, male Sprague Dawley rats; settings: 37°, 4 minutes
Experimental: (§4) In vitro tests have shown that compounds of formula I also have a marked degree of selectivity in inhibiting uptake of 5-HT into rat brain synaptosomes relative to uptake of ^3 H noradrenaline. The test procedure involved obtaining synaptosomal preparations from male Sprague Dawley rats according to the method of Grey and Whittaker* as modified by Wood & Wyllie.** Aliquots of the synaptosomal preparation were then incubated with tritrated noradrenaline (NA) or 5-HT at a temperature of 37° for 4 minutes. The active synaptosomal accumulation of labelled substrate was measured by filtration and scintillation counting. The effect at a range of concentrations of test compound enabled IC50 values and selectivity ratios to be calculated.

[4] = system: 5-hydroxy-L-tryptophan induced behavioural syndrome; experiment: Potentiation of 5-hydroxytryptophan (5-HTP)-induced behaviour in rats; format: in vivo, male Sprague-Dawley rats; settings: Rattus norvegicus, po
Experimental: The compounds B and C were also tested for their ability to potentiate 5-hydroxy-L-tryptophan induced behavioural syndrome in rats. The test procedure is described below (updated from that described in UK No. 2073179B).
Potentiation of 5-hydroxytryptophan (5-HTP)-induced behaviour
Groups of 10 male Sprague-Dawley rats (310-360 g) were dosed p.o. with vehicle or drugs. Ninety minutes later 5-HTP (50 mg/kg s.c.) was administered and the animals placed in individual observation chambers (peripheral decarboxylation was prevented by 25 mg/kg i.p. carbidopa administered 60 minutes before 5-HTP). Head shakes were counted over the period 30-45 minutes after 5-HTP and the intensity of the 5-HT syndrome was scored immediately afterwards using the system described for the pCA procedure above. Percentage potentiation of syndrome was calculated as follows: […]
0, 1, 2 or 3 according to severity
as §2
Percentage potentiation was calculated from the following: [formula]

[5] = system: 5-HT uptake into rat brain synaptosomes; experiment: Inhibition of 5-HT uptake into rat brain synaptosomes; format: biochemical, male Sprague Dawley rats; settings: for IC50: 37°, 4 minutes; for Selectivity Ratio (5-HT uptake relative to NA uptake): from IC50 NA and IC50 5-HT
Experimental: as §4

[6] = system: pCA syndrome; experiment: Related duration test on pCA syndrome (with modified scoring); format: in vivo; settings: 15 mg/kg
[7] = rats, p.o., 90 min before pCA 10 mg/kg i.p., scored 30 min after pCA, free bases except C (maleate, corrected for active material), read-out: ED50 (dose required to produce 50% inhibition of pCA induced stereotypy)
[8] = rats, p.o., 90 min before 5-HTP 50 mg/kg s.c., carbidopa 25 mg/kg i.p., value of C corrected for amount of active ingredient, read-out: ED50 (potentiation of 5-HTP-induced behavioural syndrome)

Row | Structure (SMILES) | inhibition of syndrome at 50 mg/kg ([1]; rats) | ED50 [1, 7] | antagonism of pCA-induced stereotypy (in words) ([1]; rats, p.o.) | % Inhibition of pCA induced stereotypy, time 2 ([2]; time 2 after administration of 5-HT inhibitor (time unit not given)) | % Inhibition of pCA induced stereotypy, time 6 ([2]; time 6 after administration of 5-HT inhibitor (time unit not given)) | % Inhibition of pCA induced stereotypy, time 12 ([2]; time 12 after administration of 5-HT inhibitor (time unit not given)) | % Inhibition of pCA induced stereotypy, time 16 ([2]; time 16 after administration of 5-HT inhibitor (time unit not given)) | IC50 [3] | ED50 [4, 8] | IC50 [5] | Selectivity Ratio (5-HT uptake relative to NA uptake) [5] | duration of action (in words) [6] | inhibition after 16 hours ([6]; 16 hours) | inhibition after two hours ([6]; two hours) | ED50 ([4]; same test, corrected for amount of base, read-out: ED50 (potentiation of 5-HTP-induced behavioural syndrome), panuramine HCl salt) | ED50 ([1]; same test, monohydrochloride corrected for amount of active ingredient, read-out: ED50 (inhibition of pCA induced stereotypy), panuramine)
1 | O=C(NC(=O)c1ccc2ncccc2c1)NC1CCN(Cc2ccc3ccccc3c2)CC1 [A, N-[[[1-(2-naphthalenylmethyl)-4-piperidinyl]amino]-carbonyl]-6-quinolinecarboxamide] | 99% | 2.7 mg/kg | antagonised pCA-induced stereotypy in a dose-dependent manner | – | – | – | – | – | – | – | – | – | – | – | – | –
2 | O=C(NC(=O)c1ccc2ncccc2c1)NC1CCN(Cc2ccc3cc(F)ccc3c2)CC1 [C, N-[[[1-(6-fluoro-2-naphthalenylmethyl)-4-piperidinyl]-amino]-carbonyl]-6-quinolinecarboxamide] | 99% | 2.1 mg/kg | antagonised pCA-induced stereotypy in a dose-dependent manner | ca. 79% | 82.8% | 56.9% | 57.6% | 37 µM | 2.4 mg/kg | 0.082 µM | 450 | – | – | – | – | –
3 | O=C(NC(=O)c1ccc2ncccc2c1)NC1CCN(Cc2ccc3ncccc3c2)CC1 [B, N-[[[1-(quinol-6-ylmethyl)-4-piperidinyl]amino]-carbonyl]-6-quinolinecarboxamide] | 99% | 6.5 mg/kg | antagonised pCA-induced stereotypy in a dose-dependent manner | – | – | – | – | 8.9 µM | 7.3 mg/kg | 0.043 µM | 207 | – | – | – | – | –
4 | O=C(NC(=O)c1ccccc1)NC1CCN(Cc2ccc3ccccc3c2)CC1 [panuramine, 1-benzoyl-3-[1-(naphth-2-ylmethyl)piperid-4-yl]urea, reference compound] | ca. 78% | – | – | – | – | – | – | 8.5 µM | – | 0.063 µM | 135 | much shorter duration of action | 12.2% | 65.1% | 27.4 mg/kg | 16.2 mg/kg
